Measured values as given in article PMC5355235, “FLT3 activating mutations display differential sensitivity to multiple tyrosine kinase inhibitors” (Oncotarget, 2017).
Where two headings read alike, the source gives them in different places.

Columns and labels:
[1] = system: BaF3 FLT3 D835G mutant cells; experiment: MTT growth inhibition assay, BaF3 FLT3 D835G cells; type: cell-based; settings: no IL-3, 48 h, read-out: Proliferation IC50
Protocol: (§1) Figure 1 Growth of AL mutants in the presence of FLT3 TKI The BaF3 AL mutants were grown in the absence of IL-3 and analyzed by treatment in increasing concentrations of FLT3 TKI for 48 hours, after which growth inhibition was assessed using the MTT assay. Means are representative of at least three independent experiments.
(§2) The cells were grown in the absence of IL3 and analyzed by treatment in increasing concentrations of FLT3 TKI for 48 hours, after which growth inhibition was assessed using the MTT assay. Each experiment was performed at least three times and representative results are shown.
(§3) Based on Trypan Blue exclusion, 2 × 10^4 viable cells were seeded in quadruplicate in a 96-well microtiter plate in the presence or absence of inhibitor for 48 h. The effect of drug activity on cell viability was measured using the 3-(4,5-Dimethylthiazol-2-yl)-2,5-diphenyltetrazolium bromide (MTT) assay according to the manufacturer's instructions (Roche Applied Science, Indianapolis, IN, USA). Following treatment, cells were incubated for 4 h in MTT followed by dissolution in solubilization buffer overnight. Absorbance was measured at 570 nm on a Bio-Rad plate reader (Hercules, CA, USA). […] Results shown are presented as means and are representative of at least three independent experiments.

[2] = system: BaF3 FLT3 I836S mutant cells; experiment: MTT growth inhibition assay, BaF3 FLT3 I836S cells; type: cell-based; settings: BaF3 FLT3 I836S, no IL-3, 48 h, MTT, read-out: Proliferation IC50
Protocol: as §1, §2, §3

[3] = system: BaF3/ITD cells; experiment: MTT growth inhibition assay, BaF3 FLT3-ITD cells; type: cell-based; settings: no IL-3, 48 h, read-out: Proliferation IC50
Protocol: as §1, §2, §3

[4] = system: BaF3 FLT3 840G+S mutant cells; experiment: MTT growth inhibition assay, BaF3 FLT3 840G+S cells; type: cell-based; settings: no IL-3, 48 h, read-out: Proliferation IC50
Protocol: as §1, §2, §3

[5] = system: BaF3 FLT3 I836L+D mutant cells; experiment: MTT growth inhibition assay, BaF3 FLT3 I836L+D cells; type: cell-based; settings: no IL-3, 48 h, read-out: Proliferation IC50
Protocol: as §1, §2, §3

[6] = system: BaF3 FLT3 D835Y mutant cells; experiment: MTT growth inhibition assay, BaF3 FLT3 D835Y cells; type: cell-based; settings: no IL-3, 48 h, read-out: Proliferation IC50
Protocol: as §1, §2, §3

[7] = system: BaF3 FLT3 D593D mutant cells; experiment: MTT growth inhibition assay, BaF3 FLT3 D593D cells; type: cell-based; settings: no IL-3, 48 h, read-out: Proliferation IC50
Protocol: as §1, §2, §3

[8] = system: BaF3 FLT3 D835L+K mutant cells; experiment: MTT growth inhibition assay, BaF3 FLT3 D835L+K cells; type: cell-based; settings: no IL-3, 48 h, read-out: Proliferation IC50
Protocol: as §1, §2, §3

[9] = system: BaF3 FLT3 D835N mutant cells; experiment: MTT growth inhibition assay, BaF3 FLT3 D835N cells; type: cell-based; settings: no IL-3, 48 h, read-out: Proliferation IC50
Protocol: as §1, §2, §3

[10] = system: BaF3 FLT3 I836T mutant cells; experiment: MTT growth inhibition assay, BaF3 FLT3 I836T cells; type: cell-based; settings: no IL-3, 48 h, read-out: Proliferation IC50
Protocol: as §1, §2, §3

[11] = system: BaF3 FLT3 D835A mutant cells; experiment: MTT growth inhibition assay, BaF3 FLT3 D835A cells; type: cell-based; settings: BaF3 FLT3 D835A, no IL-3, 48 h, MTT, read-out: Proliferation IC50
Protocol: as §1, §2, §3

[12] = system: BaF3 FLT3 D835Y cells; experiment: Engraftment of BaF3 D835Y luciferase cells in BALB/c mice, bioluminescence imaging; type: in vivo; settings: 10 mg/kg once daily oral gavage, day 5 to day 9
Protocol: On day 5 following transplantation, the level of engraftment was assessed by imaging mice for bioluminescence on an IVIS Spectrum imager. […] This experiment was repeated three times.
Cells were sorted for GFP and CD135 expression on a FACS AriaII cytometer using FACSDiva software. For engraftment, 2 ×10^6 cells were injected via tail vein into BALB/c mice (Jackson Laboratories, Bar Harbor, ME, USA) (day 0). […] [36, 37] […] Mice were imaged by intraperitoneal injection of luciferin (3 mg) and visualizing on an IVIS Spectrum imager (Caliper LifeSciences, Hopkinton, MA, USA) using Living Image software for analysis on day 5 following inoculation to monitor engraftment and on day 9 to assess drug effect. All animal procedures were conducted in accordance with the policy of the Johns Hopkins University School of Medicine Animal Care and Use Committee.

[13] = system: FLT3/ITD; experiment: FLT3/ITD autophosphorylation and signaling pathways, Western blot; type: cell-based; settings: FLT3/ITD cells, 1 h, concentration-dependent
Protocol: (§4) Activated FLT3 expression was measured by performing immunoprecipitation, SDS-PAGE and Western blotting as previously described. Specifically, 10^7 cells were washed in medium and treated with inhibitor for 1 h followed by stimulation with 25 ng/ml of FLT3 ligand for 15 minutes where indicated. Cells were washed twice with ice-cold PBS and lysed in 300 µl of NP-40 lysis buffer (150 mM NaCl, 20 mM TrisHCl (pH7.4), 10% glycerol, 1% NP-40, 10 mM EDTA, 100 mM NaF) with 2 mM Na3VO4 and protease inhibitors (Complete Tablets, Roche, Mannheim, Germany) at 4°C for 30 m. Cell lysate was harvested by centrifugation at 13,000 × g for 30 m at 4°C. FLT3 S-18 antibody was incubated with 500 µg lysate overnight at 4°C followed by immunoprecipitation with protein A-agarose beads for 2 h. Beads were washed once in Tris buffered saline with 1% Tween-20 (TBST) and twice in TBS. Samples were boiled in sodium dodecyl sulfate (SDS) sample buffer prior to separating in a 8% SDS-polyacrylamide gel (SDS-PAGE). Proteins were transferred to a polyvinyl diflouride (PVDF) membrane (Millipore, Bedford, MA, USA) and detected by 4G10 phosphotyrosine antibody and anti-FLT3 S-18 antibody. FLT3 was visualized using the Odyssey Infra Red Imaging System from Li-Cor (Lincoln, NE, USA) using AlexaFluor 680 goat anti-mouse and AlexaFluor 800 goat anti-rabbit antibodies. Phosphorylation of the FLT3 downstream signaling mediators, STAT5, AKT and MAP kinase was investigated by loading 50 µg of whole cell lysate and probing with the indicated antibodies. The membrane was washed and incubated in goat anti-rabbit secondary antibody conjugated to horseradish peroxidase followed by enhanced chemiluminescence (ECL). The membrane was subsequently stripped in 200 mM glycine buffer, pH 2.5 with 0.1% Tween-20 and reprobed for STAT5, AKT and MAP kinase expression using the respective antibodies.

[14] = molecular target: T1, FLT3 D835Y (Homo sapiens, UniProt P36888, D835Y); experiment: FLT3 autophosphorylation, immunoprecipitation/Western blot, D835Y; type: cell-based; settings: FLT3 D835Y cells, highest concentrations tested, 1 h
T1 construct: expressed in transfected cells; host or cells: BaF3
T1 sequence (P36888 27-993 D835Y): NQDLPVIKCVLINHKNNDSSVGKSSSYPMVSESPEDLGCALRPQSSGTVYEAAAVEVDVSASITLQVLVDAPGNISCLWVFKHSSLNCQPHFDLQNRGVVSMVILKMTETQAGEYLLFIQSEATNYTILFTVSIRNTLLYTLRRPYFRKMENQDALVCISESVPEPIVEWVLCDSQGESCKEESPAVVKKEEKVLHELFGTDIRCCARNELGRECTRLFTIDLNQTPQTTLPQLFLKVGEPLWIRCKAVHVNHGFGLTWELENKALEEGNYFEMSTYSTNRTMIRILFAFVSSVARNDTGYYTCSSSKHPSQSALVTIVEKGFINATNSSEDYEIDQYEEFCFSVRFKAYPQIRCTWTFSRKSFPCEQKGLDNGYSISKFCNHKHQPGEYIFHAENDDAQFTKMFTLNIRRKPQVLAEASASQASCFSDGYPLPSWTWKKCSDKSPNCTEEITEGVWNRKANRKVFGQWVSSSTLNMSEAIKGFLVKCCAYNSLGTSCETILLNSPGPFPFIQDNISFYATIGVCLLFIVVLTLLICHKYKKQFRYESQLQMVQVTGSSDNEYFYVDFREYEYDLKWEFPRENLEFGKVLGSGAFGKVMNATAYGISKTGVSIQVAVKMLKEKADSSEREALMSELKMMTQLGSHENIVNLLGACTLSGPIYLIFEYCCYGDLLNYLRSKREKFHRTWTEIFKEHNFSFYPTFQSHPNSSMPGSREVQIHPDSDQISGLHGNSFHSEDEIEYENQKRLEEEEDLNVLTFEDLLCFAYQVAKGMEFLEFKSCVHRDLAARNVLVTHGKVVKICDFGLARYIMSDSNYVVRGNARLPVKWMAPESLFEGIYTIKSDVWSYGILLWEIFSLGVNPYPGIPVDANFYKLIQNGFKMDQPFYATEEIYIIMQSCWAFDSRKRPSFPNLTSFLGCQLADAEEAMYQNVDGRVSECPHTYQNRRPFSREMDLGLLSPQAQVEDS
Protocol: as §4, with “Phosphorylation of the FLT3 downstream signaling mediators, STAT5, AKT and MAP kinase was investigated by loading 50 µg of whole cell lysate and probing with the indicated antibodies. The membrane was washed and incubated in goat anti-rabbit secondary antibody conjugated to horseradish peroxidase followed by enhanced chemiluminescence (ECL). The membrane was subsequently stripped in 200 mM glycine buffer, pH 2.5 with 0.1% Tween-20 and reprobed for STAT5, AKT and MAP kinase expression using the respective antibodies.” left out

| IC50 [1] [nM] | IC50 [2] [nM] | IC50 [3] [nM] | IC50 [4] [nM] | IC50 [5] [nM] | IC50 [6] [nM] | IC50 [7] [nM] | IC50 [8] [nM] | IC50 [9] [nM] | IC50 [10] [nM] | IC50 [11] [nM] | IC50 ([1]; Mus musculus) [nM] | IC50 ([2]; Mus musculus) [nM] | IC50 ([3]; Mus musculus) [nM] | IC50 ([4]; Mus musculus) [nM] | IC50 ([5]; Mus musculus) [nM] | IC50 ([6]; Mus musculus) [nM] | IC50 ([7]; Mus musculus) [nM] | IC50 ([8]; Mus musculus) [nM] | IC50 ([9]; Mus musculus) [nM] | SMILES | other results |
| --- | --- | --- | --- | --- | --- | --- | --- | --- | --- | --- | --- | --- | --- | --- | --- | --- | --- | --- | --- | --- | --- |
| 141 | > 200 | 166 | > 200 | > 200 | > 200 | > 200 | > 200 | 153 | 152 | > 200 |  |  |  |  |  |  |  |  |  | COc1cc(Nc2ncc(F)c(Nc3ccc4c(n3)NC(=O)C(C)(C)O4)n2)cc(OC)c1OC [R406] |  |
|  |  |  |  |  |  |  |  |  |  |  | 34.5 | 10.2 | 18.5 | 5 | > 200 | > 2000 | > 200 | > 200 | 31.6 | CNC(=O)c1cc(Oc2ccc(NC(=O)Nc3ccc(Cl)c(C(F)(F)F)c3)cc2)ccn1 [Sorafenib] | Leukemic burden (bioluminescence) on day 9 [12]: clear progression of leukemia; Inhibition of FLT3 autophosphorylation and phosphorylation of STAT5, AKT and Map kinase [13]: inhibited FLT3 autophosphorylation; IC50 ([10]; Mus musculus): 48.2 nM; Inhibition of FLT3 autophosphorylation [14]: markedly reduced or absent inhibition; IC50 ([11]; Mus musculus): > 200 nM |
|  |  |  |  |  |  |  |  |  |  |  | 48.1 | > 200 | 5.4 | 4 | > 200 | > 100 | > 200 | > 200 | 46.4 | CCN(CC)CCNC(=O)c1c(C)[nH]c(/C=C2\C(=O)Nc3ccc(F)cc32)c1C [Sunitinib] | IC50 ([11]; Mus musculus): > 200 nM |
| < 1 | 9 | < 1 | < 1 | 11.7 | 4.1 | 2.8 | 6.7 | < 1 | 9.7 | 1.3 |  |  |  |  |  |  |  |  |  | CNC(=O)[C@@]1(N)C[C@H]2O[C@]1(C)n1c3ccccc3c3c4c(c5c6ccccc6n2c5c31)C(=O)NC4 [TTT-3002] |  |
